The values below come from US20150045410A1, “METHOD OF REGULATING CFTR EXPRESSION AND PROCESSING” (University of Iowa Research Foundation, priority 2012, published 2015).

Data set [1] deals with CFTR. Briefly: CFTR mRNA (RT-qPCR) and protein (immunoblot) in Calu-3 cells. The format is cell-based, human. Conditions: mRNA 24 hrs, protein 72 hrs post-transfection. The protocol:
Freshly dissociated human airway epithelial cells or immortalized cell lines were transfected in pre-coated 96 well plates (Costar) or Transwell™ Permeable Supports (0.33 cm^2 0.4 μm polyester membrane, Costar 3470). Lipofectamine™ RNAiMAX (Invitrogen) was used as a reverse transfection reagent. Pre-coated (with human placental collagen Type IV, Sigma) substrates were incubated with the transfection mix comprising of Opti-MEM (Invitrogen), oligonucleotide (Integrated DNA Technologies) and Lipofectamine™ RNAiMAX (Invitrogen). 15-20 minutes later, 200,000 freshly dissociated cells suspended in DMEM/F-12 were added to each well/insert. Between 4-6 hrs later, all media from the apical surface was aspirated and complete media added to the basolateral surface. […]
First-strand cDNA was synthesized using SuperScript® II (Invitrogen), and oligo-dT and random-hexamer primers. […] To quantitate miRNAs, TaqMan® microRNA Assays (Applied Biosystems) were obtained for miR-138, RNU48 (control) and 8 other miRNAs (negative control, miRs-21, -24, -26a, -200c, -146a, -146b, -27a*, -134). […] All experiments were performed in quadruplicate. mRNA and miRNA quantification in cell lines represents 8 independent transfections in 4 separate experiments. mRNA quantification in human primary airway epithelial cultures represent 8 independent transfections in 8 non-CF donors and 4 CF donors. […]
Background: In qPCR the cycle at which signal appears reflects the starting amount.

Data set [2] relates to HA-tagged wild-type CFTR. Briefly: Cell surface ELISA (anti-HA) in HeLa cells stably expressing HA-tagged wild-type CFTR. Particulars: wild-type CFTR-3HA under CMV promoter, 6, 12, 24 hrs post-transfection. The format is cell-based. From the text: Hela cells stably expressing wild-type CFTR or CFTR-ΔF508 were kindly provided by Dr. G. Lukacs (Sharma, M., Benharouga, M., Hu, W. & Lukacs, G. L. Conformational and temperature-sensitive stability defects of the delta F508 cystic fibrosis transmembrane conductance regulator in post-endoplasmic reticulum compartments. J Biol. Chem. 276, 8942-8950, (2001); Sharma, M. et al. Misfolding diverts CFTR from recycling to degradation: quality control at early endosomes. J Cell Biol. 164, 923-933 (2004)). Cell surface ELISA was performed on these cells (Okiyoneda, T. et al. Peripheral protein quality control removes unfolded CFTR from the plasma membrane. Science 329, 805-810 (2010)) 6 hrs, 12 hrs, and 24 hrs after transfecting with oligonucleotides. HeLa cells were transfected in 96 well plates (Costar) with the SIN3A DsiRNA and miR-138 mimic as described earlier using the Lipofectamine™ RNAiMAX (Invitrogen) recommended reverse transfection protocol. Briefly, the plate containing the cells was moved to a cold room (4° C.), and all media used was ice cold. […] The reaction was stopped and read on a VersaMax™ Microplate Reader (Molecular Devices) at 540 nm using the SoftMax® Prof Software (Molecular Devices). For normalization, cells were lysed and total protein quantitated using the BCA Protein Assay kit (Pierce). […] Statistical significance between groups was determined using Student's t-test.
On the technique in general: In an ELISA, binding on a coated surface is turned into a signal by an enzyme label.

“miR-138 mimic: synthetic modified RNA duplex, sense SEQ ID NO: 4, antisense SEQ ID NO: 5, showing miR-138-like activity”: the “CFTR mRNA and protein levels” value in data set [1] was “increased”. In addition, the “HA-tagged CFTR at the cell surface (ELISA)” value in data set [2] is reported as “increase”.
The matching figures for “SIN3A DsiRNA: Dicer-substrate siRNA against SIN3A, sense SEQ ID NO: 6, antisense SEQ ID NO: 7 (sense GCGAUACAUGAAUUCAGAUACUACC; antisense GGUAGUAUCUGAAUUCAUGUAUCGCUC; chemistry not given here)”: “increased” and “increase”.
